Read-outs that look alike come from different tables or passages of the source. Blank lines part the entries; values can stand above or below the compound they belong to.
Key:
Jurkat cells = assay: TMTpro quantitative proteomics, 16 h; conditions: for Scaled value (to 150), replicate 01 / Scaled value (to 150), replicate 02 / Scaled value (to 150), replicate 03 / Log2(ratio) compound/UT / Ratio to untreated, replicate 01 / Ratio to untreated, replicate 02 / Ratio to untreated, replicate 03: Jurkat whole cell extracts; for Scaled value (to 150), replicate 01 / Scaled value (to 150), replicate 02 / Scaled value (to 150), replicate 03: TMTpro SPS-MS3; for Log2(ratio) compound/UT: Welch's t-test with FDR correction
Experimental: Quantitative proteomics screens were carried out in untransduced Jurkat cells, embryonic stem cells (ESCs), and the multiple myeloma cell line, MM.1S. We used Jurkat cells, as our work up to this point had employed this cell line, and we selected ESCs and MM.1S cells as they express known CRBN neosubstrates, including IKZF1, IKZF3, RAB28, RNF166, SALL4, ZFP91, and ZNF827.
Proteomics - cell lysis and protein digestion
The viability of Jurkat cells was tested after 16-h treatment with corresponding chemicals
viable cells in each condition. Next, ~10^7 cells per condition were collected by centrifugation (1000 rpm), washed twice with ice-cold PBS, and lysed in RIPA buffer [50 mM HEPES pH 7.4, 150 mM NaCl, 1% sodium deoxycholate, 1% NP-40, 0.1% SDS, 10 mM sodium pyrophosphate, 10 mM β-glycerophosphate, 2.5 mM MgCl2, 200 µM TCEP, phosphatase and protease inhibitor cocktail (in-house)], to produce whole cell extracts. Whole-cell extracts were sonicated, and protein concentrations were determined using the Bradford assay. Protein extracts (100 µg) were subjected to disulfide bond reduction with 5 mM TCEP (10 min) and alkylation with 25 mM chloroacetamide (20 min). Methanol–chloroform precipitation was performed prior to protease digestion. In brief, four parts of neat methanol were added to each sample and vortexed, one part chloroform was added to the sample and vortexed, and finally, three parts water was added to the sample and vortexed. The sample was centrifuged at 8000 rpm for 5 min at room temperature and subsequently washed twice with 100% methanol. Samples were resuspended in 100 mM EPPS pH8.5 containing
0.1% RapiGest and digested at 37 °C for 6 h with trypsin at a 100:1 protein-to-protease ratio.
Samples were then subjected to TMTpro
labeling. The preparation of MM1S cell extracts was conducted using the same procedure as for
Jurkat cells. ESC cells were plated onto 6 cm dishes 24 hours prior to the chemical treatment.
Following the chemical treatment, the cells on the dish were washed with DPBS four times, after
which RIPA buffer was added directly to the dish, and the lysate was collected using a scraper.
The whole cell lysates were then processed similarly to the Jurkat cell lysates.
Proteomics - Tandem mass tag labeling
Proline-based reporter isobaric Tandem Mass Tag (TMTpro) labeling of dried peptide samples
resuspended in 100 mM EPPS pH 8.5, was carried out as follows. TMTpro reagent was added to
samples (100 µg peptide), along with acetonitrile, to achieve a final acetonitrile concentration of
approximately 30% (v/v). Following incubation at room temperature for 1 h, the labeling efficiency
of a small aliquot was tested. The reaction was then quenched with hydroxylamine to a final
concentration of 0.5% (v/v) for 15 min. The TMTpro-labeled samples were pooled together at a
1:1 ratio. The sample was vacuum centrifuged to near dryness and subjected to C18 solid-phase
The dried TMTpro-labeled sample was resuspended in 100 μL of 10 mM NH4HCO3 pH 8.0 and
fractionated using basic pH reverse phase HPLC 40. Briefly, samples were offline fractionated over
a 90 min run, into 96 fractions by high pH reverse-phase HPLC (Agilent LC1260) through an aeris
peptide xb-c18 column (Phenomenex; 250 mm × 3.6 mm) for total proteome with mobile phase A
containing 5% acetonitrile and 10 mM NH4HCO3, and mobile phase B containing 90% acetonitrile

[1] = biological target: T1, Q147A mutant degron (ANQS) fused to EGFP (Homo sapiens, UniProt Q96SW2+Q9UKT9, Q147A); assay: Ratiometric EGFP:mCherry flow cytometry degradation assay, 18 h; type: cell-based; conditions: Jurkat, read-out: DMax Q147A/%
T1 construct: pLVX-Sprout-IKZF3 130-189aa Q147A (ANQS); expressed in transfected cells

[2] = protein AADAT isoform 2 (Q8N5Z0-2)

T1 sequence (Q9UKT9 130-189 Q147A): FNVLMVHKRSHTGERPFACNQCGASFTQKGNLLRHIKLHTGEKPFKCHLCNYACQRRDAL
T1 sequence (Q96SW2 whole entry, the tested form may be a part): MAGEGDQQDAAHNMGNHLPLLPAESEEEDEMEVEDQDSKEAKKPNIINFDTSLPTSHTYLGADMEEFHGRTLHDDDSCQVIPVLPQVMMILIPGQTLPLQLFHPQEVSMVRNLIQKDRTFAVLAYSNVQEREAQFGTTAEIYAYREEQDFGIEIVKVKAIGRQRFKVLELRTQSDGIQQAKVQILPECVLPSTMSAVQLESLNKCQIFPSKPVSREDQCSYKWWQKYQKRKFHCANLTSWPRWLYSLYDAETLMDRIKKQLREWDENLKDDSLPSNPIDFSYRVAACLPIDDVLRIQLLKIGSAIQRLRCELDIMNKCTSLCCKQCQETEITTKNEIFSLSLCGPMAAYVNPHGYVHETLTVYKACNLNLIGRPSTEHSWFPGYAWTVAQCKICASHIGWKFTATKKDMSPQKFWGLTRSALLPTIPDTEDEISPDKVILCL
T1 sequence (Q16531 whole entry partner, the tested form may be a part): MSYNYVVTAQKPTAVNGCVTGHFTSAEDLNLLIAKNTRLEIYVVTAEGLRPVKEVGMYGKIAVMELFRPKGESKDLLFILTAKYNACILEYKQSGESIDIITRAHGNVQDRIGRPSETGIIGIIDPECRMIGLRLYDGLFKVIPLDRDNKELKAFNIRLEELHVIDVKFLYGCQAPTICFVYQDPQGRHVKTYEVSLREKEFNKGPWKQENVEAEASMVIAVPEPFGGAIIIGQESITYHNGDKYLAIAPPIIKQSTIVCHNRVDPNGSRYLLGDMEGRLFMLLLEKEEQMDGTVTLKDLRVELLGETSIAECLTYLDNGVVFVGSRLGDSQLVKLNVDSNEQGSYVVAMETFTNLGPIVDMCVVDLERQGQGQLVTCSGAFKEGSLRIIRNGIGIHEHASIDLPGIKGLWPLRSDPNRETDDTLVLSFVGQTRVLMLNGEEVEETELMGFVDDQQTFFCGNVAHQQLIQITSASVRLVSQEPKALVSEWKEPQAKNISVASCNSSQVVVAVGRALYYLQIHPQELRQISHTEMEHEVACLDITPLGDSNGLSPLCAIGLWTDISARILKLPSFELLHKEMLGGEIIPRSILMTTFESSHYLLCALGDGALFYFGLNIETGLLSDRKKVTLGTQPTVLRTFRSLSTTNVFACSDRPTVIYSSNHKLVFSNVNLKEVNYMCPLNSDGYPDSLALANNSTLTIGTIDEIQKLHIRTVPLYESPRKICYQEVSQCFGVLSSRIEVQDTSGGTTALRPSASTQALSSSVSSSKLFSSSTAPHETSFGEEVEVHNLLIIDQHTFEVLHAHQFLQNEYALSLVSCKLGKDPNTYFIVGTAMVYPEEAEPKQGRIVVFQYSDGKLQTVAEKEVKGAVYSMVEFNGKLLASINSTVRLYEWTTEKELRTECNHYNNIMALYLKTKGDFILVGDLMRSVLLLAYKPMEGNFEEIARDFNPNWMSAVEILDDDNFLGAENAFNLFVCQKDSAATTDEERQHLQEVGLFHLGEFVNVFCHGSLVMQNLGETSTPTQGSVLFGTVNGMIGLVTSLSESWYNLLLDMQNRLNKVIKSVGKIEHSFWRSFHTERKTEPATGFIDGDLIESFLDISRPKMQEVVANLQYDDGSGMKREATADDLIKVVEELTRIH

SMILES: CN1CCN(c2ccc3c(c2)C(=O)N(C2CCC(=O)NC2=O)C3=O)CC1 (centres unmarked) [Cmpd23]
Scaled value (to 150), replicate 01 (Jurkat cells; protein A2M (P01023)): 8.458 | Scaled value (to 150), replicate 02 (Jurkat cells; protein A2M (P01023)): 9.12 | Scaled value (to 150), replicate 03 (Jurkat cells; protein A2M (P01023)): 12.2998 | Scaled value (to 150), replicate 01 (Jurkat cells; protein AAAS (Q9NRG9)): 10.4661 | Scaled value (to 150), replicate 02 (Jurkat cells; protein AAAS (Q9NRG9)): 9.826 | Scaled value (to 150), replicate 03 (Jurkat cells; protein AAAS (Q9NRG9)): 10.0212 | Scaled value (to 150), replicate 01 (Jurkat cells; protein AACS (Q86V21)): 9.826 | Scaled value (to 150), replicate 02 (Jurkat cells; protein AACS (Q86V21)): 9.749 | Scaled value (to 150), replicate 03 (Jurkat cells; protein AACS (Q86V21)): 9.8 | Scaled value (to 150), replicate 01 (Jurkat cells; [2]): 10.0867 | Scaled value (to 150), replicate 02 (Jurkat cells; [2]): 10.5129 | Scaled value (to 150), replicate 03 (Jurkat cells; [2]): 9.582 | Log2(ratio) compound/UT (Jurkat cells; protein A2M (P01023)): -0.3516 | Ratio to untreated, replicate 01 (Jurkat cells; protein A2M (P01023)): 0.6228 | Ratio to untreated, replicate 02 (Jurkat cells; protein A2M (P01023)): 0.6715 | Ratio to untreated, replicate 03 (Jurkat cells; protein A2M (P01023)): 0.9057 | Log2(ratio) compound/UT (Jurkat cells; protein AAAS (Q9NRG9)): -0.01283 | Ratio to untreated, replicate 01 (Jurkat cells; protein AAAS (Q9NRG9)): 1.017 | Ratio to untreated, replicate 02 (Jurkat cells; protein AAAS (Q9NRG9)): 0.9547 | Ratio to untreated, replicate 03 (Jurkat cells; protein AAAS (Q9NRG9)): 0.9736 | Log2(ratio) compound/UT (Jurkat cells; protein AACS (Q86V21)): -0.01545 | Ratio to untreated, replicate 01 (Jurkat cells; protein AACS (Q86V21)): 0.9811 | Ratio to untreated, replicate 02 (Jurkat cells; protein AACS (Q86V21)): 0.9735 | Ratio to untreated, replicate 03 (Jurkat cells; protein AACS (Q86V21)): 0.9785 | Log2(ratio) compound/UT (Jurkat cells; [2]): 0.05616 | Ratio to untreated, replicate 01 (Jurkat cells; [2]): 1.033 | Ratio to untreated, replicate 02 (Jurkat cells; [2]): 1.076 | Ratio to untreated, replicate 03 (Jurkat cells; [2]): 0.9809

SMILES: O=C1CCC(N2C(=O)c3cccc(O)c3C2=O)C(=O)N1 (centres unmarked) [Compound 4]
Dmax [1]: 46%

SMILES: COc1cccc2c1C(=O)N(C1CCC(=O)NC1=O)C2=O (centres unmarked) [Compound 6]
Dmax ([1]; 18 h, Fig 2B): 75%

SMILES: O=C1CCC(N2C(=O)c3cccc(F)c3C2=O)C(=O)N1 (centres unmarked) [Compound 8]
Dmax ([1]; 18 h, Fig 2B): 57%

SMILES: O=C1CCC(N2C(=O)c3cccc(Cl)c3C2=O)C(=O)N1 (centres unmarked) [Compound 10]
Dmax ([1]; 18 h, Fig 2B): 88%

SMILES: O=C1CCC(N2C(=O)c3cccc(I)c3C2=O)C(=O)N1 (centres unmarked) [Compound 14]
Dmax ([1]; 18 h, Fig 2B): 86%

SMILES: O=C1CCC(N2C(=O)c3ccc(-c4ccccc4)cc3C2=O)C(=O)N1 (centres unmarked) [Compound 20]
Dmax ([1]; 18 h, Fig 2B): 66%

SMILES: CCNc1cccc2c1C(=O)N(C1CCC(=O)NC1=O)C2=O (centres unmarked) [Compound 24]
Dmax ([1]; 18 h, Fig 2B): 96%

SMILES: O=C1CCC(N2C(=O)c3cccc(NCc4ccccc4)c3C2=O)C(=O)N1 (centres unmarked) [Compound 26]
Dmax ([1]; 18 h, Fig 2B): 95%

SMILES: O=C1CCC(N2C(=O)c3cccc(NCc4cccnc4)c3C2=O)C(=O)N1 (centres unmarked) [Compound 27]
Dmax ([1]; 18 h, Fig 2B): 93%

SMILES: Cc1ccccc1CNc1cccc2c1C(=O)N(C1CCC(=O)NC1=O)C2=O (centres unmarked) [Compound 28]
Dmax ([1]; 18 h, Fig 2B): 94%

SMILES: Nc1cccc2c1CN(C1CCC(=O)NC1=O)C2=O (centres unmarked) [lenalidomide]
Scaled value (to 150), replicate 01 (Jurkat cells; protein A2M (P01023)): 10.2473 | Scaled value (to 150), replicate 02 (Jurkat cells; protein A2M (P01023)): 8.044 | Scaled value (to 150), replicate 03 (Jurkat cells; protein A2M (P01023)): 8.233 | Scaled value (to 150), replicate 01 (Jurkat cells; protein AAAS (Q9NRG9)): 9.75 | Scaled value (to 150), replicate 02 (Jurkat cells; protein AAAS (Q9NRG9)): 10.198 | Scaled value (to 150), replicate 03 (Jurkat cells; protein AAAS (Q9NRG9)): 10.3119 | Scaled value (to 150), replicate 01 (Jurkat cells; protein AACS (Q86V21)): 10.2128 | Scaled value (to 150), replicate 02 (Jurkat cells; protein AACS (Q86V21)): 10.0368 | Scaled value (to 150), replicate 03 (Jurkat cells; protein AACS (Q86V21)): 9.972 | Scaled value (to 150), replicate 01 (Jurkat cells; [2]): 9.894 | Scaled value (to 150), replicate 02 (Jurkat cells; [2]): 10.004 | Scaled value (to 150), replicate 03 (Jurkat cells; [2]): 10.2911 | proteins significantly degraded (quantitative proteomics) (Jurkat cells; Jurkat, 1 μM, 16 h, Welch's t test): at least 6 proteins

More lines, now with the values ahead:

Dmax ([1]; 18 h, Fig 2B): 90%
SMILES: Nc1ccc2c(c1)C(=O)N(C1CCC(=O)NC1=O)C2=O (centres unmarked) [Compound 3]

Dmax ([1]; 18 h, Fig 2B): 82%
SMILES: COc1ccc2c(c1)C(=O)N(C1CCC(=O)NC1=O)C2=O (centres unmarked) [Compound 7]

Dmax ([1]; 18 h, Fig 2B): 89%
SMILES: O=C1CCC(N2C(=O)c3ccc(F)cc3C2=O)C(=O)N1 (centres unmarked) [Compound 9]

Dmax ([1]; 18 h, Fig 2B): 37%
SMILES: O=C1CCC(N2C(=O)c3ccc(Cl)cc3C2=O)C(=O)N1 (centres unmarked) [Compound 11]

Dmax ([1]; 18 h, Fig 2B): 66%
SMILES: O=C1CCC(N2C(=O)c3cccc(Br)c3C2=O)C(=O)N1 (centres unmarked) [Compound 12]

Dmax ([1]; 18 h, Fig 2B): 56%
SMILES: O=C1CCC(N2C(=O)c3ccc(Br)cc3C2=O)C(=O)N1 (centres unmarked) [Compound 13]

Dmax ([1]; 18 h, Fig 2B): 77%
SMILES: O=C1CCC(N2C(=O)c3ccc(I)cc3C2=O)C(=O)N1 (centres unmarked) [Compound 15]

Dmax ([1]; 18 h, Fig 2B): 87%
SMILES: Cc1cccc2c1C(=O)N(C1CCC(=O)NC1=O)C2=O (centres unmarked) [Compound 16]

Dmax ([1]; 18 h, Fig 2B): 72%
SMILES: Cc1ccc2c(c1)C(=O)N(C1CCC(=O)NC1=O)C2=O (centres unmarked) [Compound 17]

Dmax ([1]; 18 h, Fig 2B): 91%
SMILES: O=C1CCC(N2C(=O)c3ccc(C(F)(F)F)cc3C2=O)C(=O)N1 (centres unmarked) [Compound 18]

Dmax ([1]; 18 h, Fig 2B): 86%
SMILES: CN(C)c1ccc2c(c1)C(=O)N(C1CCC(=O)NC1=O)C2=O (centres unmarked) [Compound 21]

From paper PMC12645437, “Orthogonal IMiD-Degron Pairs Induce Selective Protein Degradation in Cells” (ACS Chemical Biology, 2025)
